Test results from the supplement of paper PMC11451515.

Test system: SEM cells
Experiment: cell viability relative to DMSO control; higher = less cytotoxic
Conditions: 48 h
Summary of the method: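 NOMO1, SEM and P12-Ichikawa leukemia cells spent at least four passages adapting to each medium before use. They were seeded at 500 cells/well (NOMO1, SEM) or 1000 cells/well (P12-Ichikawa) in 5 μl in 1536-well plates and pin-dosed with library compounds in DMSO at 11 threefold steps from 47 μM down to 0.79 nM. After 48 h at 37°C, CellTiter-Glo One luminescence was read. Viability is reported as a percentage of the DMSO wells on each plate, with cell-free wells as background.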

[1] = HPLM + 10% dialyzed FBS, 0.000781 µM
[2] = HPLM + 10% dialyzed FBS, 0.00234 µM
[3] = HPLM + 10% dialyzed FBS, 0.00702 µM
[4] = HPLM + 10% dialyzed FBS, 0.0211 µM
[5] = HPLM + 10% dialyzed FBS, 0.0632 µM
[6] = HPLM + 10% dialyzed FBS, 0.19 µM
[7] = HPLM + 10% dialyzed FBS, 0.569 µM
[8] = HPLM + 10% dialyzed FBS, 1.71 µM
[9] = HPLM + 10% dialyzed FBS, 5.12 µM
[10] = HPLM + 10% dialyzed FBS, 15.4 µM
[11] = HPLM + 10% dialyzed FBS, 46.1 µM
[12] = RPMI 5 mM glucose + 10% FBS, 0.000781 µM
[13] = RPMI 5 mM glucose + 10% FBS, 0.00234 µM
[14] = RPMI 5 mM glucose + 10% FBS, 0.00702 µM
[15] = RPMI 5 mM glucose + 10% FBS, 0.0211 µM
[16] = RPMI 5 mM glucose + 10% FBS, 0.0632 µM
[17] = RPMI 5 mM glucose + 10% FBS, 0.19 µM
[18] = RPMI 5 mM glucose + 10% FBS, 0.569 µM
[19] = RPMI 5 mM glucose + 10% FBS, 1.71 µM
[20] = RPMI 5 mM glucose + 10% FBS, 5.12 µM
[21] = RPMI 5 mM glucose + 10% FBS, 15.4 µM
[22] = RPMI 5 mM glucose + 10% FBS, 46.1 µM
[23] = RPMI 5 mM glucose + 10% dialyzed FBS, 0.000781 µM
[24] = RPMI 5 mM glucose + 10% dialyzed FBS, 0.00234 µM
[25] = RPMI 5 mM glucose + 10% dialyzed FBS, 0.00702 µM
[26] = RPMI 5 mM glucose + 10% dialyzed FBS, 0.0211 µM
[27] = RPMI 5 mM glucose + 10% dialyzed FBS, 0.0632 µM
[28] = RPMI 5 mM glucose + 10% dialyzed FBS, 0.19 µM
[29] = RPMI 5 mM glucose + 10% dialyzed FBS, 0.569 µM
[30] = RPMI 5 mM glucose + 10% dialyzed FBS, 1.71 µM
[31] = RPMI 5 mM glucose + 10% dialyzed FBS, 5.12 µM
[32] = RPMI 5 mM glucose + 10% dialyzed FBS, 15.4 µM
[33] = RPMI 5 mM glucose + 10% dialyzed FBS, 46.1 µM

Compound	cell viability [1] [%]	cell viability [2] [%]	cell viability [3] [%]	cell viability [4] [%]	cell viability [5] [%]	cell viability [6] [%]	cell viability [7] [%]	cell viability [8] [%]	cell viability [9] [%]	cell viability [10] [%]	cell viability [11] [%]	cell viability [12] [%]	cell viability [13] [%]	cell viability [14] [%]	cell viability [15] [%]	cell viability [16] [%]	cell viability [17] [%]	cell viability [18] [%]	cell viability [19] [%]	cell viability [20] [%]	cell viability [21] [%]	cell viability [22] [%]	cell viability [23] [%]	cell viability [24] [%]	cell viability [25] [%]	cell viability [26] [%]	cell viability [27] [%]	cell viability [28] [%]	cell viability [29] [%]	cell viability [30] [%]	cell viability [31] [%]	cell viability [32] [%]	cell viability [33] [%]
c1ccc(-c2oc3ncnc(NC[C@@H]4CCCO4)c3c2-c2ccccc2)cc1	115	115	114	121	126	130	125	134	128	121	79.4	111	112	109	103	108	110	105	106	112	99.9	61.1	121	129	115	118	104	136	111	112	118	124	69.6
OCCC#Cc1nc(-c2ccc(F)cc2)c(-c2ccncc2)n1CCCc1ccccc1	86.8	115	115	120	118	109	131	123	124	105	88.4	98.3	122	112	118	103	130	116	127	126	107	85.8	–	–	–	–	–	–	–	–	–	–	–
CN1CCN(CCCN2c3ccccc3Sc3ccc(C(F)(F)F)cc32)CC1	74.1	85.4	88.1	103	97.3	101	106	105	107	102	106	83.1	91.4	90.7	93.9	94.4	100	101	99.4	98.6	105	101	90.6	94.2	89.9	94.4	102	102	92.7	104	107	112	86.8
N#C[C@H](O[C@@H]1O[C@H](CO[C@@H]2O[C@H](CO)[C@@H](O)[C@H](O)[C@H]2O)[C@@H](O)[C@H](O)[C@H]1O)c1ccccc1	114	103	113	127	115	118	108	102	110	114	41.8	106	98.3	120	112	99.8	102	112	94.8	94.5	95.7	20.6	97.4	104	97.4	122	99	99.7	97.5	101	91.4	92.2	15.3
OC[C@H]1O[C@@H](Oc2cc(O)cc(/C=C/c3ccc(O)cc3)c2)[C@H](O)[C@@H](O)[C@@H]1O	71.9	89.5	97.3	105	101	108	108	108	95.4	116	115	79.3	102	89.7	104	97.4	110	85.7	102	117	119	104	86.2	104	94	102	93.2	104	102	119	114	117	114
CN1CCN(C(=O)O[C@H]2c3nccnc3C(=O)N2c2ccc(Cl)cn2)CC1	103	105	99.8	104	101	89	108	97.9	105	39.8	95.8	101	106	109	111	109	96.6	99.9	116	108	43.4	89	110	105	113	111	102	105	110	110	103	30.6	95.6
OCCn1cc(-c2cnc3nnn(Cc4ccc5ncccc5c4)c3n2)cn1	102	107	99.5	98.1	97.9	89.3	89.5	91.5	85.3	72.1	38.5	122	138	124	133	120	116	109	90.7	82.1	73.9	26.6	84.6	97.9	102	108	107	106	118	97.3	82	60.5	33.4
COc1cc(C)c(Sc2cnc(NC(=O)c3ccc(CNC(C)C(C)C)cc3)s2)cc1C(=O)N1CCN(C(C)=O)CC1 (configuration not stated)	119	134	124	118	96.6	105	96.2	104	81.7	42	108	115	135	111	129	109	112	110	112	73.9	43.4	121	124	141	116	118	121	118	109	102	79.9	49.7	132
CN(C)CCN1C(=O)c2cccc3cc(N)cc(c23)C1=O	94.4	89.4	110	108	105	107	108	91.1	51	30.3	3.64	70.2	67.3	71.5	72.1	73.8	74.1	62.6	52.4	32.1	19.3	2.87	89.5	95	98.8	102	112	99.3	106	92	60.1	34.6	3.19
O=C1NC(=O)/C(=C/c2ccc(-c3ccc(F)cc3O)o2)S1	127	118	110	122	123	111	111	102	124	94.1	87.1	–	–	–	–	–	–	–	–	–	–	–	114	129	120	122	112	121	111	84.6	87.3	98.6	74.8
N[S+](=O)([O-])OC[C@@H]1C[C@@H](n2ccc3c(N[C@H]4CCc5ccccc54)ncnc32)C[C@@H]1O	96.3	98.3	104	94.2	105	122	101	53.1	27.8	14.2	7.9	101	121	119	101	101	117	113	48.4	24.5	10.3	8.49	90.8	95.4	95.7	92.1	97.3	111	103	35.8	23.8	12.1	8.74
CON(C)C(=O)N1/N=C(S[C@@]1(CCCN)C2=CC=CC=C2)/C3=CC(=CC=C3F)F	96.3	99.9	42.5	21.7	23.9	24.4	22	21.3	10.6	19.7	15.3	–	–	–	–	–	–	–	–	–	–	–	100	114	111	30.4	24.4	22.7	24.1	24.8	13	22.2	16.4
CCOc1ccc(Cc2cc([C@@H]3O[C@H](CO)[C@@H](O)[C@H](O)[C@H]3O)ccc2Cl)cc1	113	108	120	107	126	125	117	121	115	128	113	102	110	110	89.5	106	124	112	121	121	115	118	116	104	128	85.6	117	124	129	122	119	117	105
NC/1=N/C(=O)N(/C=N1)[C@@H]2O[C@H](CO)[C@@H](O)[C@H]2O	85.7	107	117	106	76.2	100	104	105	75.4	24.5	3.65	95.7	107	99.5	102	70.9	110	90.4	94.8	75.1	35.3	7.85	90.8	87.8	82	90.1	69.7	93.5	82.3	74.6	38.9	6.43	3.29
CC(O)C1C2C(C)\C(=C(/N2C1=O)C(O)=O)SC3CNC(C3)C(=O)N(C)C (configuration not stated)	79.6	64.9	84	88.8	90.4	81.4	86.7	82.3	90.7	77.9	78.5	80.9	77.2	85.2	90.7	84.1	75.7	92.2	85.4	90.7	83.9	90.6	86	68.8	98.7	92.7	104	107	90.8	90.2	104	88.3	73.9
